Tested on: hSTING and/or mSTING
Experiment: hSTING- or mSTING-dependent ISRE-luc reporter assay in 293T cells
Format: cell-based
Conditions: 24 hours
Protocol: ISRE-luc (reporter), pRL-TK (internal control) and hSTING- or mSTING-expressing plasmids were transiently transfected into 293T cells. Cells were exposed to DMSO vehicle control or compounds for 24 hours. Experiments were done in triplicate.

Compound | activation of hSTING and/or mSTING in ISRE-luc reporter assay | further results
Fc1cccc(-c2nc(CN3CCN(c4ccc(Br)cc4)CC3)[nH]c2-c2cccc(F)c2)c1 [Compound 1174] | – | activation of hSTING and/or mSTING in ISRE-luc reporter assay (10 μM): activate hSTING and/or mSTING
Fc1cccc(-c2nc(CN3CCN(Cc4ccccc4)CC3)[nH]c2-c2cccc(F)c2)c1 [Compound 1175] | – | activation of hSTING and/or mSTING in ISRE-luc reporter assay (10 μM): activate hSTING and/or mSTING
O=C(c1cccc(F)c1)N1CCN(Cc2nc(-c3cccc(F)c3)c(-c3cccc(F)c3)[nH]2)CC1 [Compound 1177] | – | activation of hSTING and/or mSTING in ISRE-luc reporter assay (10 μM): activate hSTING and/or mSTING
O=C(c1ccccc1F)N1CCN(Cc2nc(-c3cccc(F)c3)c(-c3cccc(F)c3)[nH]2)CC1 [Compound 1178] | – | activation of hSTING and/or mSTING in ISRE-luc reporter assay (10 μM): activate hSTING and/or mSTING
O=C(c1ccc(F)cc1)N1CCN(Cc2nc(-c3cccc(F)c3)c(-c3cccc(F)c3)[nH]2)CC1 [Compound 1179] | – | activation of hSTING and/or mSTING in ISRE-luc reporter assay (10 μM): activate hSTING and/or mSTING
O=C(c1cccc(F)c1)N1CCN(Cc2nc(-c3ccccc3)c(-c3ccccc3)o2)CC1 [Compound 1180] | – | activation of hSTING and/or mSTING in ISRE-luc reporter assay (20 μM): activate hSTING and/or mSTING
Oc1cccc(N2CCN(Cc3nc(-c4cccc(F)c4)c(-c4cccc(F)c4)[nH]3)CC2)c1 [Compound 1181] | – | activation of hSTING and/or mSTING in ISRE-luc reporter assay (20 μM): activate hSTING and/or mSTING
Oc1cccc(N2CCN(Cc3nc(-c4ccccc4)c(-c4ccccc4)o3)CC2)c1 [Compound 1182] | – | activation of hSTING and/or mSTING in ISRE-luc reporter assay (20 μM): activate hSTING and/or mSTING
Oc1ccccc1N1CCN(Cc2nc(-c3cccc(F)c3)c(-c3cccc(F)c3)[nH]2)CC1 [Compound 1183] | – | activation of hSTING and/or mSTING in ISRE-luc reporter assay (20 μM): activate hSTING and/or mSTING
Oc1ccccc1N1CCN(Cc2nc(-c3ccccc3)c(-c3ccccc3)o2)CC1 [Compound 1184] | – | activation of hSTING and/or mSTING in ISRE-luc reporter assay (20 μM): activate hSTING and/or mSTING
N#CCN(CCc1c[nH]c2ccccc12)Cc1nc(-c2ccccc2)c(-c2ccccc2)o1 [Compound 1188] | activate hSTING and/or mSTING | –
c1ccc(-c2nc(CN3CCN(c4ccccn4)CC3)oc2-c2ccccc2)cc1 [Compound 1227] | – | activation of hSTING and/or mSTING in ISRE-luc reporter assay (20 μM): activate hSTING and/or mSTING
c1ccc(-c2nc(CN3CCN(Cc4ccccn4)CC3)oc2-c2ccccc2)cc1 [Compound 1285] | activate hSTING and/or mSTING | –
Fc1cccc(CN2CCN(Cc3nc(-c4ccccc4)c(-c4ccccc4)o3)CC2)c1 [Compound 1286] | activate hSTING and/or mSTING | –
COc1ccc(CN2CCN(Cc3nc(-c4ccccc4)c(-c4ccccc4)o3)CC2)cc1 [Compound 1287] | activate hSTING and/or mSTING | –
Fc1ccc(CN2CCN(Cc3nc(-c4ccccc4)c(-c4ccccc4)o3)CC2)cc1 [Compound 1288] | activate hSTING and/or mSTING | –
COc1cccc(CN2CCN(Cc3nc(-c4ccccc4)c(-c4ccccc4)o3)CC2)c1 [Compound 1289] | activate hSTING and/or mSTING | –
Fc1ccccc1CN1CCN(Cc2nc(-c3ccccc3)c(-c3ccccc3)o2)CC1 [Compound 1357] | activate hSTING and/or mSTING | –
N#Cc1cccc(CN2CCN(Cc3nc(-c4ccccc4)c(-c4ccccc4)o3)CC2)c1 [Compound 1360] | activate hSTING and/or mSTING | –
N#Cc1ccc(CN2CCN(Cc3nc(-c4ccccc4)c(-c4ccccc4)o3)CC2)cc1 [Compound 1361] | activate hSTING and/or mSTING | –
N#Cc1ccccc1CN1CCN(Cc2nc(-c3ccccc3)c(-c3ccccc3)o2)CC1 [Compound 1364] | activate hSTING and/or mSTING | –
Cc1cccnc1CN1CCN(Cc2nc(-c3ccccc3)c(-c3ccccc3)o2)CC1 [Compound 1366] | activate hSTING and/or mSTING | –
c1ccc(-c2nc(CNCCc3c[nH]c4ccccc34)[nH]c2-c2ccccc2)cc1 [Compound 1369] | activate hSTING and/or mSTING | –
COCCN1CCN(Cc2nc(-c3ccccc3)c(-c3ccccc3)o2)CC1 [Compound 1370] | activate hSTING and/or mSTING | –
C=CCN(CCc1c[nH]c2ccccc12)Cc1nc(-c2ccccc2)c(-c2ccccc2)o1 [Compound 1372] | activate hSTING and/or mSTING | –
O=[N+]([O-])c1ccccc1S(=O)(=O)N(CCc1c[nH]c2ccccc12)Cc1nc(-c2ccccc2)c(-c2ccccc2)[nH]1 [Compound 1373] | activate hSTING and/or mSTING | –

From patent US10844051B2, “Substituted oxazoles for the treatment of cancer” (THE ROYAL INSTITUTION FOR THE ADCANCEMENT OF …, priority 2015, dated 2020)
